Test results from ChEMBL document CHEMBL5113375, “Development of Mcl-1 inhibitors for cancer therapy” (Eur J Med Chem, 2021).
Blank lines part the entries; values can stand above or below the compound they belong to.

Assays:
[1] = target: T1, Induced myeloid leukemia cell differentiation protein Mcl-1 (Homo sapiens, UniProt Q07820); assay: Binding affinity to Mcl-1 (unknown origin) assessed as inhibition constant by fluorescence polarization assay
[2] = target: BCL2/BID (Homo sapiens, UniProt P10415); assay: Binding affinity to Bcl-2/Bid (unknown origin) by fluorescence polarization assay; format: protein assay
[3] = target: T2, Induced myeloid leukemia cell differentiation protein Mcl-1/BH3-interacting domain death agonist (Homo sapiens, UniProt Q07820); assay: Binding affinity to Mcl-1/Bid (unknown origin) by fluorescence polarization assay; format: protein assay
[4] = target: T3, Induced myeloid leukemia cell differentiation protein Mcl-1/Bcl-2-like protein 11 (Homo sapiens, UniProt Q07820); assay: Inhibition of Mcl-1/Bim (unknown origin) by ELISA method; format: protein assay
[5] = target: T4, Bcl-xL/Bcl-2-like protein 11 (Homo sapiens, UniProt Q07817); assay: Inhibition of Bcl-xL/Bim (unknown origin) by ELISA method; format: protein assay
[6] = target: T4, Bcl-xL/Bcl-2-like protein 11; assay: Inhibition of GST-tagged Bcl-xL/Bim (unknown origin) incubated for 15 mins followed by Bim addition measured after 2 hrs by ELISA method; format: protein assay
[7] = target: T3, Induced myeloid leukemia cell differentiation protein Mcl-1/Bcl-2-like protein 11; assay: Inhibition of GST-tagged Mcl-1/Bim (unknown origin) incubated for 15 mins followed by Bim addition measured after 2 hrs by ELISA method; format: protein assay
[8] = tested on: MCF7; assay: Induction of apoptosis in Bcl-2 dependent human MCF7 cells treated for 48 hrs by Annexin V-FITC staining based flow cytometric analysis; format: functional, cell-based; details: MCF7, 48 h
[9] = Induction of apoptosis in Mcl-1 dependent […] cells treated for 48 hrs by Annexin V-FITC staining based flow cytometric analysis; format: functional, cell-based; details: Mus musculus, H22, 48 h
[10] = target: T2, Induced myeloid leukemia cell differentiation protein Mcl-1/BH3-interacting domain death agonist; assay: Binding affinity to Mcl-1/Bid (unknown origin) assessed as inhibition constant by fluorescence polarization assay; format: protein assay
[11] = target: T5, BCL2A1/BID (Homo sapiens, UniProt Q16548); assay: Binding affinity to Bfl-1/Bid (unknown origin) by fluorescence polarization assay; format: protein assay
T5 sequence (Q16548 whole entry): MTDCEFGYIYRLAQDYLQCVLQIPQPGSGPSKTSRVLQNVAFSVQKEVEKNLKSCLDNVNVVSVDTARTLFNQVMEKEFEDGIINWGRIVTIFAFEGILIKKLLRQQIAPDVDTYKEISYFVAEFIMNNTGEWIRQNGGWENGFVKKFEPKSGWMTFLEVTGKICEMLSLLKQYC
T5 sequence (P55957 whole entry): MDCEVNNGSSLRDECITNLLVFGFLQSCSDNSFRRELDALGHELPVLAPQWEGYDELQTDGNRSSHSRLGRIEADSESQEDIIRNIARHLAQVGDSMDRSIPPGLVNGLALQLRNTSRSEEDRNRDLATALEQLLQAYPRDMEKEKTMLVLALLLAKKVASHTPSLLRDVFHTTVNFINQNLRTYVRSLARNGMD

[12] = target: T6, Bcl-xL/BH3-interacting domain death agonist (Homo sapiens, UniProt Q07817); assay: Binding affinity to Bcl-xL/Bid (unknown origin) by fluorescence polarization assay; format: protein assay
[13] = target: T7, BCL2L2/BID (Homo sapiens, UniProt P55957+Q92843); assay: Binding affinity to Bcl-W/Bid (unknown origin) by fluorescence polarization assay; format: protein assay
T7 sequence (Q92843 whole entry): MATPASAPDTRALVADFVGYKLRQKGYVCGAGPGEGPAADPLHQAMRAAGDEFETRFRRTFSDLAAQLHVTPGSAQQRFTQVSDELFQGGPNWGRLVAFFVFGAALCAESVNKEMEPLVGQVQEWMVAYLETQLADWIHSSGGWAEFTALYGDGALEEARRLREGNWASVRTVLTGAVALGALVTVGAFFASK
T7 sequence (P55957 whole entry): T5 sequence (P55957 whole entry)

[14] = target: T8, Bcl-xL/BAK (Homo sapiens, UniProt Q07817); assay: Inhibition of Bcl-xL/Bak (unknown origin); format: protein assay
[15] = target: Apoptosis regulator Bcl-2/Bcl-2 homologous antagonist/killer (Homo sapiens, UniProt P10415+Q16611); assay: Inhibition of Bcl-2/Bak (unknown origin); format: protein assay
[16] = target: T9, MCL1-BAK1 complex (Homo sapiens, UniProt Q07820); assay: Inhibition of Mcl-1/Bak (unknown origin); format: protein-complex assay
[17] = target: T10, BCL2A1/BAK1 (Homo sapiens, UniProt Q16548+Q16611); assay: Inhibition of Bfl-1/Bak (unknown origin); format: protein assay
T10 sequence (Q16611 whole entry): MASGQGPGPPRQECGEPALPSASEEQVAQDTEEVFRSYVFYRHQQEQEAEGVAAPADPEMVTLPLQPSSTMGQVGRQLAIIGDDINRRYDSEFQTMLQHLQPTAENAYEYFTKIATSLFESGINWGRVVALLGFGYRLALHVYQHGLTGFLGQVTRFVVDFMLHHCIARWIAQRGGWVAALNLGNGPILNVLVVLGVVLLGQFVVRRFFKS
T10 sequence (Q16548 whole entry): T5 sequence (Q16548 whole entry)

[18] = target: T8, Bcl-xL/BAK; assay: Binding affinity to Bcl-xL/Bak (unknown origin) assessed as inhibition constant by fluorescence polarization assay; format: protein assay
[19] = target: T9, MCL1-BAK1 complex; assay: Binding affinity to Mcl-1/Bak (unknown origin) assessed as inhibition constant by fluorescence polarization assay; format: protein-complex assay
[20] = target: T8, Bcl-xL/BAK; assay: Binding affinity to Bcl-xL/Bak (unknown origin) assessed as dissociation constant by ITC method; format: protein assay
[21] = target: T8, Bcl-xL/BAK; assay: Inhibition of Bcl-xL/Bak (unknown origin) by fluorescence polarization assay; format: protein assay
[22] = target: T3, Induced myeloid leukemia cell differentiation protein Mcl-1/Bcl-2-like protein 11; assay: Inhibition of Mcl-1/Bim (unknown origin) by fluorescence polarisation assay; format: protein assay
[23] = target: T2, Induced myeloid leukemia cell differentiation protein Mcl-1/BH3-interacting domain death agonist; assay: Inhibition of Mcl-1/Bid (unknown origin) by fluorescence polarization assay; format: protein assay
[24] = target: T6, Bcl-xL/BH3-interacting domain death agonist; assay: Inhibition of Bcl-xL/Bid (unknown origin) by fluorescence polarization assay; format: protein assay
[25] = target: T1, Induced myeloid leukemia cell differentiation protein Mcl-1; assay: Binding affinity to wildtype Mcl-1 (unknown origin) assessed as dissociation constant by SPR analysis
[26] = Binding affinity to Mcl-1 H224A (unknown origin) assessed as dissociation constant by SPR analysis; set-up: species or system Homo sapiens
[27] = tested on: HeLa; assay: Cytotoxicity against human HeLa cells; format: functional, cell-based
[28] = tested on: K562; assay: Cytotoxicity against human K562 cells; format: functional, cell-based
[29] = target: BCL2/BCL2L11 (Homo sapiens, UniProt P10415); assay: Inhibition of Bcl-2/Bim (unknown origin) by ELISA method; format: protein assay
BCL2/BCL2L11, sequence (P10415 whole entry): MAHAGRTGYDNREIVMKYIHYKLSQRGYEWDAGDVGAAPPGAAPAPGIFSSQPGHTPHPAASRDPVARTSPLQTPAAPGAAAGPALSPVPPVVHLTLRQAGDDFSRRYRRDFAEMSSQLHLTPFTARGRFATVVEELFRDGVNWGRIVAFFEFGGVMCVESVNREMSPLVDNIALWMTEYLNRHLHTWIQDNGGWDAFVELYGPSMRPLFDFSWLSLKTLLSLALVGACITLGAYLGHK
BCL2/BCL2L11, sequence (O43521 whole entry, further chain): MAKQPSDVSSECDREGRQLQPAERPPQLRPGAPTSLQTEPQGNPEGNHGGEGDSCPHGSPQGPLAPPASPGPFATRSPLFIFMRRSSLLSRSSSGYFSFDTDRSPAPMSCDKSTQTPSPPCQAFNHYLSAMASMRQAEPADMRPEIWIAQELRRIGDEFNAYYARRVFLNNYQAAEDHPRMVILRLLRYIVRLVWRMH

BCL2/BID, sequence (P10415 whole entry, one chain of several, the tested form may be a part): as the sequence (P10415 whole entry) above
T8 sequence (Q07817 whole entry, one chain of several): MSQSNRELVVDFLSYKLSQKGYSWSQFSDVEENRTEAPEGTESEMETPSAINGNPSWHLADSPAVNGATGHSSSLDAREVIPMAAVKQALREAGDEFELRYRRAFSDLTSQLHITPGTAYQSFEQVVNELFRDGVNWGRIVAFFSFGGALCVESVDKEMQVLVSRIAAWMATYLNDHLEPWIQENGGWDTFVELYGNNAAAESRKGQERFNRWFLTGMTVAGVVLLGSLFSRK
T6 sequence (Q07817 whole entry, one chain of several, the tested form may be a part): as the sequence (Q07817 whole entry, one chain of several) above
T4 sequence (Q07817 whole entry): as the sequence (Q07817 whole entry, one chain of several) above
T4 sequence (O43521 whole entry, further chain): as the sequence (O43521 whole entry, further chain) above
T1 sequence (Q07820 whole entry): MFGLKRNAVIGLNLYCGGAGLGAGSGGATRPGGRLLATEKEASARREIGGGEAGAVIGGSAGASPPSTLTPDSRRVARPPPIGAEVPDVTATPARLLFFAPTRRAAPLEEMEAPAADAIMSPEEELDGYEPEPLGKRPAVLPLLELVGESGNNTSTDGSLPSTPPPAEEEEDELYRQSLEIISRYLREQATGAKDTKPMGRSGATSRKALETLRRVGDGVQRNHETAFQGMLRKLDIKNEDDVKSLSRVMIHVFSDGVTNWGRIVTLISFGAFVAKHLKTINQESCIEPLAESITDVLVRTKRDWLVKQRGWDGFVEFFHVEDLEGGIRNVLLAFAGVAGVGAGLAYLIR
T2 sequence (Q07820 whole entry, one chain of several, the tested form may be a part): as the sequence (Q07820 whole entry) above
T9 sequence (Q07820 whole entry, one chain of several): as the sequence (Q07820 whole entry) above
T3 sequence (Q07820 whole entry): as above
T3 sequence (O43521 whole entry, further chain): as the sequence (O43521 whole entry, further chain) above
Apoptosis regulator Bcl-2/Bcl-2 homologous antagonist/killer, sequence (P10415 whole entry, one chain of several): as the sequence (P10415 whole entry) above

SMILES: COC(=O)c1ccc(C(=O)c2c(Cl)c(Cl)c3n2-c2c([nH]c(Cl)c2Cl)C(=O)c2ccc(C(=O)OC)cc2O3)c(O)c1
IC50 [4]: 4300 nM
IC50 [5]: 3400 nM

SMILES: COc1ccc(CSc2ccc(C(=O)c3[nH]c(Cl)c(Cl)c3-n3cc(Cl)c(Cl)c3C(=O)c3ccc(SCc4ccc(OC)cc4)cc3O)c(O)c2)cc1
IC50 [6]: 600 nM
IC50 [7]: 700 nM

SMILES: CCOC(=O)CSc1ccc(C(=O)c2[nH]c(Cl)c(Cl)c2-n2cc(Cl)c(Cl)c2C(=O)c2ccc(SCC(=O)OCC)cc2O)c(O)c1
IC50 [6]: 1200 nM
IC50 [7]: 1800 nM

SMILES: Cc1cc2c(C(=O)NC(C)c3ccc(Cl)cc3)c(O)c(O)cc2c(O)c1-c1c(C)cc2c(C(=O)NC(C)c3ccc(Cl)cc3)c(O)c(O)cc2c1O (stereo not given)
IC50 [15]: 490 nM
IC50 [17]: 400 nM

SMILES: COc1ccc(-c2ccc(/C=C3\SC(=S)N([C@@H](Cc4ccccc4)C(=O)O)C3=O)cn2)cc1OC
Ki [18]: > 100 µM
Ki [19]: 8 µM
Kd [20]: > 750 µM

SMILES: Cc1cc2c(C(C)C)c(O)c(O)c(C=O)c2c(O)c1-c1c(C)cc2c(C(C)C)c(O)c(O)c(C=O)c2c1O [GOSSYPOL]
IC50 [23]: 1750 nM
IC50 [24]: 3.03 µM

SMILES: O=C1CCC(N2C(=O)c3cccc4c(Sc5ccc(Br)cc5)ccc(c34)C2=O)C(=O)N1 (stereo not given)
Kd [25]: 150 nM
Kd [26]: 130 nM
IC50 [27]: 10.4 µM
IC50 [28]: 7.3 µM
IC50 [4]: 150 nM
IC50 [29]: 430 nM

SMILES: N#CC1=C(C#N)c2ccc(Sc3ccc(Br)cc3)c3cccc(c23)C1=O
Kd [25]: 430 nM
Kd [26]: 410 nM

The next lines start with results.

Ki [1]: 298 nM
Ki [2]: 1200 nM
SMILES: O=C(NCCNS(=O)(=O)c1sccc1-c1ccccc1Oc1ccc(O)c(O)c1)Nc1cc(C(F)(F)F)cc(C(F)(F)F)c1
Ki [3]: 330 nM

IC50 [8]: 19.2 µM
IC50 [9]: 9.2 µM
SMILES: O=C(O)c1cc2ccccc2n1S(=O)(=O)c1ccc(OCc2cccc(Cl)c2)cc1

Ki [11]: 5.33 µM
Ki [1]: 180 nM
Ki [2]: 23800 nM
Ki [13]: 8.19 µM
SMILES: O=C(O)CSc1cc(NS(=O)(=O)c2cccc(Br)c2)c2ccccc2c1O
Ki [10]: 490 nM
Ki [12]: 33 µM

IC50 [14]: 310 nM
IC50 [16]: 620 nM
IC50 [17]: 200 nM
SMILES: Cc1cc2c(O)c(-c3ccc4c(C(=O)NCC(C)c5ccccc5)c(O)c(O)cc4c3O)c(C)cc2c(C(=O)NCC(C)c2ccccc2)c1C (stereo not given)
IC50 [15]: 320 nM

IC50 [4]: 1400 nM
IC50 [5]: 2300 nM
SMILES: O=C1c2ccc(OS(=O)(=O)C(F)(F)F)cc2Oc2c(Cl)c(Cl)c(C(=O)c3ccc(OS(=O)(=O)C(F)(F)F)cc3O)n2-c2c1[nH]c(Cl)c2Cl

IC50 [21]: 1500 nM
IC50 [22]: 4.9 µM
SMILES: CC(C)Cc1cc(-c2ccc(-c3ccc(OCC(=O)O)cc3CC(C)C)cc2Cc2ccccc2)ccc1OCCC(=O)O

Ki [19]: 6.9 µM
Kd [20]: 3.4 µM
SMILES: COc1cccc(-c2ccc(/C=C3\SC(=S)N([C@@H](Cc4ccccc4)C(=O)O)C3=O)cn2)c1OC

Ki [2]: 1900 nM
SMILES: O=C(Cn1nnc(-c2ccccc2Oc2ccc(Cl)cc2Cl)n1)NNC(=S)Nc1ccc([N+](=O)[O-])cc1
Ki [12]: 3.5 µM
Ki [3]: 2200 nM
